In PubChem BioAssay (NCI):
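Tested at 5 concentrations; 48 h exposure; 96-well plates; endpoints linearly interpolated, else capped at highest concentration. TGI is the concentration that stops growth completely.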

Assays:
Experiment in all cases: NCI tumour cell line growth inhibition, 48 h
A498 renal = tested on: A498 renal
HCT-15 colon = tested on: HCT-15 colon
HL-60(TB) leukemia = tested on: HL-60(TB) leukemia
HOP-92 NSCLC = tested on: HOP-92 NSCLC
MDA-MB-435 = tested on: MDA-MB-435
SNB-19 CNS = tested on: SNB-19 CNS
SNB-75 CNS = tested on: SNB-75 CNS
UO-31 renal = tested on: UO-31 renal

SMILES	TGI (A498 renal)	TGI (HCT-15 colon)	TGI (HL-60(TB) leukemia)	TGI (HOP-92 NSCLC)	TGI (MDA-MB-435)	TGI (SNB-19 CNS)	TGI (SNB-75 CNS)	TGI (UO-31 renal)
CC1(C)CNC(=O)C2(C=NC(C)(C)CNC(=O)C3(C=N1)CCCO3)CCCO2 (stereo not given)	> 10 µM	> 10 µM	> 10 µM	> 10 µM	> 10 µM	> 10 µM	> 10 µM	
O=c1c2ccccc2nc(Nc2cccc(Cl)c2)n1/N=C/C=C/c1ccccc1		> 100 µM	> 100 µM	> 100 µM	> 100 µM	> 100 µM	> 100 µM	> 100 µM
Cc1c2ncccc2cc2oc3ccccc3c(=O)c12	> 100 µM	> 100 µM	> 100 µM	92.7 µM	> 100 µM		> 100 µM	> 100 µM
CC1CC(=O)Nc2nc3ccccc3n21 (stereo not given)	> 100 µM	> 100 µM	> 100 µM	> 100 µM	> 100 µM	> 100 µM		> 100 µM
COC(=O)C1=Nc2c(C)nn(-c3ccccc3)c2N=C(c2ccc([N+](=O)[O-])cc2)C1		> 10 µM	> 10 µM	> 10 µM	> 10 µM	> 10 µM	> 10 µM	
O=C(N/N=C/c1cc(Br)cc(Br)c1[O-])c1ccccc1O.O=C(N/N=C/c1cc(Br)cc(Br)c1[O-])c1ccccc1O.[Fe+2]		13.8 µM	11.2 µM	6.89 µM		20.4 µM	27.7 µM	25.3 µM
CC1(C)OCC2OC3([C@H]4OC(C)(C)O[C@@H]4CO)OC(C)(C)OC3C2O1 (stereo not given in full)	> 100 µM	> 100 µM		> 100 µM	> 100 µM	> 100 µM	> 100 µM	> 100 µM
CC1(C(=O)O)CCCC1C(=O)O (stereo not given)	> 100 µM	> 100 µM	> 100 µM	> 100 µM		> 100 µM		> 100 µM
NC(=O)c1cc2ccccc2o/c1=N/O		> 100 µM	> 100 µM	> 100 µM	> 100 µM	> 100 µM	> 100 µM	> 100 µM
COc1ccc(Nc2nc3c([nH]2)c(=O)n(C)c(=O)n3C)cc1		> 10 µM	> 10 µM	> 10 µM	> 10 µM		> 10 µM	
COc1ccc2c(c1)CC1=C(O2)c2ccc(OC)cc2OC1	> 100 µM	36.8 µM	> 100 µM		47.5 µM		66.3 µM	> 100 µM
CCOn1c(C2(CC3CCN(C(=O)c4ccccc4)CC3)OCCO2)cc2ccccc21	26.1 µM	42.3 µM		23.5 µM	27.4 µM	30.9 µM	34.6 µM	26.9 µM
Cn1c([O-])nc(-n2cc[n+](C)c2)cc1=O	> 100 µM	> 100 µM	> 100 µM	> 100 µM	> 100 µM	> 100 µM		> 100 µM
Clc1ccc(OCc2nnc(CCCCCCCCc3nnc(COc4ccc(Cl)cc4)n3Nc3ccccc3)n2Nc2ccccc2)cc1	> 100 µM	> 100 µM		77 µM	> 63.4 µM	> 100 µM	> 100 µM	> 95.1 µM
Cc1cc2[nH]c3c(C#N)c4c(c(=O)n3c2cc1C)CCCC4	> 100 µM	> 100 µM	> 100 µM	> 100 µM	> 100 µM	> 100 µM		> 100 µM
CCOC(=O)C(CC#Cc1ccc(C#CCC(NC(C)=O)C(=O)OCC)cc1)NC(C)=O (stereo not given)	> 100 µM	> 100 µM	> 100 µM		> 100 µM	> 100 µM	> 100 µM	> 100 µM
COc1cc2c(/C=C3/C(=O)Nc4ccccc43)c(Cl)[nH]c2cc1C	19.8 µM	11 µM	3.34 µM	26.6 µM		17.5 µM	17.9 µM	20.7 µM
COc1cc(/C=C\C(=O)O)ccc1OCc1ccccc1	> 100 µM	> 100 µM	> 100 µM	> 100 µM	> 100 µM	> 100 µM		> 100 µM
C=C1CC(C)(c2ccc(Nc3nc4ccccc4c4occc34)cc2)OC1=O (stereo not given)	33.8 µM	4.73 µM	6.34 µM	12.6 µM	6.09 µM	34.6 µM	6.56 µM	
CC(=O)OC/C=C(/C=C/CNC1CCCCC1)OC(C)=O	33.9 µM	37 µM		25.5 µM	30.4 µM	49.9 µM	93.6 µM	
COc1ccc2cc(NC(=O)N/N=C\c3ccc(Cl)cc3)ccc2c1		> 100 µM	> 100 µM	> 100 µM	> 100 µM	> 100 µM	> 100 µM	> 100 µM
Brc1cc2nn(-c3ccccc3)nc2c2nonc12		> 100 µM	> 100 µM	> 100 µM	> 100 µM	> 100 µM	> 100 µM	> 100 µM
CC(=O)OCC(OC(C)=O)C1C[C@H]2O[C@@H]3[C@H](C[C@H]2O1)O[C@@]1(C[C@@H]3C)C[C@H](C)[C@@H]2O[C@]3(C[C@@H]2O1)C[C@H]1O[C@H]2[C@H](C)[C@H]4OC(=O)CC5CC[C@H]6OC7[C@H]8O[C@]9(CC[C@H]%10CC(O)(CO)[C@H](CC[C@H]%11C[C@@H](C)C(O)(CO)C(C[C@@H]4O[C@H]2C[C@H]1O3)O%11)O%10)CC8O[C@@H]7[C@@H](O9)[C@H]6O5 (stereo not given in full)	> 1 µM			> 1 µM	0.0139 µM	> 1 µM	> 1 µM	> 1 µM
NC(=O)C(=CNC(=S)c1ccncc1)C(N)=O		> 100 µM	> 100 µM	> 100 µM	> 100 µM	> 100 µM		> 100 µM
NC1CNC(=O)c2c(Cl)sc(Cl)c21 (stereo not given)	> 100 µM	> 100 µM		> 100 µM	> 100 µM	> 100 µM	> 100 µM	> 100 µM
O=C(Cc1ccc([N+](=O)[O-])cc1)OCC#CCOC(=O)Cc1ccc([N+](=O)[O-])cc1		> 10 µM	> 10 µM	> 10 µM	> 10 µM	> 10 µM	> 10 µM	> 10 µM
Cc1nc(C)c(Cc2ccccc2)o1	> 100 µM	> 100 µM	> 100 µM		> 100 µM	> 100 µM	> 100 µM	> 100 µM
